The numbers were not newly measured in article PMC2831464 (Clinical cancer research : an official journal of the …, 2010), which cites them from elsewhere.

Each structure is given as a SMILES string.

For this series the following is noted: cited from earlier work.

`CCc1c2c(nc3ccc(O)cc13)-c1cc3c(c(=O)n1C2)COC(=O)[C@]3(O)CC` [SN-38]: the “lactone AUC ratio” value was 30~76%.

Turning to `CC[C@@]1(O)C(=O)OCc2c1cc1n(c2=O)Cc2cc3c(CN(C)C)c(O)ccc3nc2-1` [topotecan], the “lactone AUC ratio” value was 30~76%.

Usually half-life stands for the time in which the quantity being followed falls by half. `CC[C@@]1(O)C(=O)OCc2c1cc1n(c2=O)Cc2c-1nc1ccccc1c2CC[Si](C)(C)C` [karenitecin]: the half-life is 15 h and the “share in the lactone form in plasma” value was 90–95%.

With `CC[C@@]1(O)C(=O)OCc2c1cc1n(c2=O)Cc2c-1nc1ccccc1c2/C=N/OC(C)(C)C` [gimatecan], the half-life is 77 h and the “share in the lactone form in plasma” value is recorded as 90–98%.
